# pEC50, pIC50: −log10 of the molar value. “And” between values parts separate entries of the source, which are not always exact repeats. Equal entries are not always repeated.
# Columns and labels:
# Format in all cases: cell-based, human
# IFNγ = assay: LPS-induced IFNγ release from THP-1 Lucia monocytes (multiplex electrochemiluminescence); settings: for pIC50: Homo sapiens, THP-1; for pIC50 / Imax, IFNγ release: LPS 50 ng/mL, 24 h; for Imax, IFNγ release: concentration–response
# Method: LXA41 and all of the tested sLXms were dissolved in ethanol and further diluted in a culture medium (final ethanol concentration 0.1%; equivalent concentrations were used as the vehicle control). Prior to in vitro experiments, THP-1-Lucia NF-κB cells were harvested and plated at 1 × 10^5 cells/well on 96-well plates and left to settle in the incubator at 37 °C, 95% humidity, and 5% CO2, in 0.1% FBS-containing media, pretreated for 30 min with increasing doses of LXA41, sLXms (from 10^–12 to 10^–6 M), or appropriate controls, followed by stimulation with 50 ng/mL LPS for 24 h. Untreated (Unt) or vehicle-treated (Veh) cells were used as negative controls; 1 pM (1R)-5, the (1R)-epimer of the benzo-mimetic, was used as a positive control for any aromatic mimetic; and, finally, we compared the observed effects to the conventional glucocorticoid dexamethasone (Dex) treatment, at 1 μM.
# After 24 h of exposure to LXA41, sLXms, or vehicle, followed by LPS stimulation (50 ng/mL), as described above, THP-1-Lucia NF-κB-cell supernatants were collected and cleared by centrifugation. Concentrations of IFN-γ, IL-1β, IL-6, IL-8, IL-10, IL-12p70, and TNF-α in culture supernatants were assessed by electro-chemi-luminescent detection, using a commercially available human 96-well plate “multiplex” (several analytes in the same well) kit for tissue culture samples, according to the manufacturers’ guidelines.
# The “coding” of the heat-map indicates the arbitrary criteria to assign points to each single PD component (efficacy = Imax or Emax; potency = IC50 or EC50; slope = HS) to generate a final (aggregate) relative PD score. If a single PD component was greater than the reference level (x > 1), then the single-component relative score was arbitrarily set to +1 (light green) or +2 (dark green). If a single PD component was equal to the reference level (x = 1), then the single-component relative score was arbitrarily set to 0 (gray). If a single PD component was smaller than the reference level (x < 1), then the single-component relative score was arbitrarily set to −1 (light red) or −2 (dark red). If the curve of a single PD component was best fitting to a flat line (x = 0), then the single-component relative score was arbitrarily set to −4 (purple) (Table S1).
# THP-1-MF0 macrophage = assay: Phagocytosis of fluorescent E. coli bioparticles by THP-1-MF0 macrophages; settings: for pEC50: Homo sapiens, Macrophage, 30 min pretreatment, read-out: Potency EC50; for pEC50 / Efficacy Emax (%): 2 h bioparticles; for Efficacy Emax (%): 30 min pretreatment 1 fM–1 μM, figure expresses fold change
# Method: Mycoplasma-free THP-1 monocytes were grown in an RPMI 1640 (Gibco) medium containing 2 mM L-glutamine, 2.00 g/L sodium bicarbonate, and 2.00 g/L glucose. Then, 10% (v/v) heat-inactivated FBS (30 min at 56 °C) and Pen-Strep (100 U/mL to 100 μg/mL) were supplemented to the growth media.
# Cell adherence was allowed for 1 h and 30 min at 37 °C/5% CO2. Cells were then treated for 30 min with controls and phagocytosis effectors for testing (vehicle, LXs, Rvs, or sLXms). Subsequently, media containing controls/effectors were vacuum-aspirated and replaced with a solution containing fluorescently prelabeled E. coli-derived bioparticles and cells were incubated in the dark for 2 h at 37 °C/5% CO2 to allow particle ingestion by monocytes/macrophages. After that, media containing bioparticles were vacuum-aspirated and replaced with a solution containing trypan blue and cells were incubated for 1 min at room temperature to allow quenching of unbound particles to ensure specificity of the fluorescent signal, deriving only from ingested particles (not shown). After aspiration of Trypan, the fluorescence reading was immediately performed at the following conditions: end point; reading from the bottom of the plate; Ex.480/Em.520 nm.
# THP-1 LUCIA monocytes = assay: Intrinsic cytotoxicity: LDH release without LPS; settings: for Intrinsic Toxicity Level: LDH-associated level of cytotoxicity (high / moderate / low); for intrinsic LDH release versus vehicle / spontaneous cell release: absence of LPS, 24 h, controls Dex 1 μM, 2 1 pM, 5 1 pM; for Intrinsic Toxicity TC50 (pM): half-maximal intrinsic LDH-associated toxic activity, no LPS
# Summary of the method: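 THP-1-Lucia NF-κB cells exposed 24 h to compounds, vehicle or controls, then LPS-stimulated for extrinsic, unstimulated for intrinsic. Supernatant LDH read at 490 nm minus 690 nm, relative to vehicle; maximum release from 2% Triton-X-100 lysis, spontaneous release from untreated cells; LPS response set to 100%.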
pIC50 (IFNγ),pEC50 (THP-1-MF0 macrophage),Compound,"Imax, IFNγ release (IFNγ) [%]",Potency Rel. Pot. (THP-1-MF0 macrophage; relative to LXA4 (1)),Single comp. score Rel. Pot. (THP-1-MF0 macrophage; relative to LXA4 (1)),Intrinsic Toxicity Level (THP-1 LUCIA monocytes),intrinsic LDH release versus vehicle / spontaneous cell release (THP-1 LUCIA monocytes),Intrinsic Toxicity TC50 (pM) (THP-1 LUCIA monocytes),"PD score, IFNγ release (IFNγ; relative to LXA4 (1))",Efficacy Emax (%) (THP-1-MF0 macrophage),concentration of peak phagocytosis (THP-1-MF0 macrophage; back to baseline at 1 μM) [nM],"increase of phagocytosis (THP-1-MF0 macrophage; concentration-dependent, at peak) [fold]",Efficacy Rel. Eff. (THP-1-MF0 macrophage; relative to LXA4 (1))
12.00,–,"CCCCC[C@H](O)/C=C/C=C\C=C\C=C\[C@@H](O)[C@@H](O)CCCC(=O)O [Compound 1, LXA4]",72 ± 4,1,–,–,–,–,–,4.2 ± 0.5% and 4.2 ± 2%,100,4,0
–,11.00,"CCCCC[C@@H](O)c1c(/C=C/[C@@H](O)[C@@H](O)CCCC(=O)OC)nc(C)n1C [Compound 5, imidazolo-LXA4]",–,500,2 (x ≥ 5),–,did not display any significant cytotoxic effect,–,–,4.2 ± 0.7%,–,–,–

# Further lines, the compound ahead of its results:
Compound,pIC50 (IFNγ),pEC50 (THP-1-MF0 macrophage),"Imax, IFNγ release (IFNγ) [%]",Potency Rel. Pot. (THP-1-MF0 macrophage; relative to LXA4 (1)),Single comp. score Rel. Pot. (THP-1-MF0 macrophage; relative to LXA4 (1)),Intrinsic Toxicity Level (THP-1 LUCIA monocytes),intrinsic LDH release versus vehicle / spontaneous cell release (THP-1 LUCIA monocytes),Intrinsic Toxicity TC50 (pM) (THP-1 LUCIA monocytes),"PD score, IFNγ release (IFNγ; relative to LXA4 (1))",Efficacy Emax (%) (THP-1-MF0 macrophage),concentration of peak phagocytosis (THP-1-MF0 macrophage; back to baseline at 1 μM) [nM],"increase of phagocytosis (THP-1-MF0 macrophage; concentration-dependent, at peak) [fold]",Efficacy Rel. Eff. (THP-1-MF0 macrophage; relative to LXA4 (1))
"CCCCC[C@@H](O)c1nc2ccccc2nc1/C=C/[C@@H](O)[C@@H](O)CCCC(=O)OC [(R)-6, Methyl (5S,6R,E)-5,6-Dihydroxy-8-(3-((R)-1-hydroxyhexyl)quinoxalin-2-yl)oct-7-enoate]",12.00,10.30,62 ± 1,100,2 (x ≥ 5),Low and low cytotoxicity,lower than the vehicle,500,–,–,–,–,–
"CCCCC[C@@H](O)c1nc2ccccc2nc1/C=C/[C@H]1OC(C)(C)O[C@H]1CCCC(=O)OC [(R)-17, Methyl 4-((4S,5R)-5-((E)-2-(3-((R)-1-Hydroxyhexyl)quinoxalin-2-yl)vinyl)-2,2-dimethyl-1,3-dioxolan-4-yl)butanoate]",–,–,–,–,–,–,–,100,–,–,–,–,–
"CCCCCCC[C@H](O)c1nc2ccccc2nc1/C=C/[C@@H](O)[C@@H](O)CCCC(=O)OC [(S)-8, Methyl (5S,6R,E)-5,6-Dihydroxy-8-(3-((S)-1-hydroxyoctyl)quinoxalin-2-yl)oct-7-enoate]",–,–,–,–,–,Low,lower than the vehicle,100,negative PD scores,–,–,–,–

# Reference: publication PMC8279484 (Journal of Medicinal Chemistry, 2021)
